Laboratory results as given in ChEMBL document CHEMBL5055633, “Amphipathic Barbiturates as Mimics of Antimicrobial Peptides and the Marine Natural Products Eusynstyelamides with Activity against Multi-resistant Clinical Isolates” (J Med Chem, 2021).

Columns and labels:
[1] = test system: Acinetobacter baumannii; assay: Antimicrobial activity against oxacillinase-24 producing Acinetobacter baumannii K55-13 assessed as reduction in bacterial growth incubated for 48 hrs by microdilution method; format: functional
[2] = Antimicrobial activity against verona integron-encoded metallo-beta-lactamase -1 producing Klebsiella pneumoniae 50667959 assessed as reduction in bacterial growth incubated for 48 hrs by microdilution method; format: functional
[3] = test system: Escherichia coli; assay: Antimicrobial activity against oxacillinase-producing Escherichia coli 50579417 assessed as reduction in bacterial growth incubated for 48 hrs by microdilution method; format: functional
[4] = test system: Pseudomonas aeruginosa; assay: Antimicrobial activity against verona integron-encoded metallo-beta-lactamase-4 producing Pseudomonas aeruginosa K34-73 assessed as reduction in bacterial growth incubated for 48 hrs by microdilution method; format: functional
[5] = test system: Escherichia coli; assay: Antimicrobial activity against Escherichia coli ATCC 25922 assessed as reduction in bacterial growth incubated for 48 hrs by microdilution susceptibility test; format: functional
[6] = test system: Acinetobacter baumannii; assay: Antimicrobial activity against oxacillinase-23 producing Acinetobacter baumannii K47-42 assessed as reduction in bacterial growth incubated for 48 hrs by microdilution method; format: functional
[7] = test system: Enterococcus faecium; assay: Antimicrobial activity against extended spectrum-lactamase-carbapenemas producing Enterococcus faecium strain 50673722 assessed as reduction in bacterial growth incubated for 48 hrs by microdilution method; format: functional
[8] = test system: Acinetobacter baumannii; assay: Antimicrobial activity against oxacillinase-58 producing Acinetobacter baumannii K12-21 assessed as reduction in bacterial growth incubated for 48 hrs by microdilution method; format: functional
[9] = test system: Staphylococcus aureus; assay: Antimicrobial activity against extended spectrum-lactamase-carbapenemas producing Staphylococcus aureus strain 85/2082 assessed as reduction in bacterial growth incubated for 48 hrs by microdilution method; format: functional
[10] = test system: Escherichia coli; assay: Antimicrobial activity against New Delhi metallo-beta lactamase-1 producing Escherichia coli 50676002 assessed as reduction in bacterial growth incubated for 48 hrs by microdilution method; format: functional
[11] = test system: Staphylococcus aureus; assay: Antimicrobial activity against extended spectrum-lactamase-carbapenemas producing Staphylococcus aureus strain WIS assessed as reduction in bacterial growth incubated for 48 hrs by microdilution method; format: functional
[12] = Hemolytic activity in human erythrocytes incubated for 1 hr by microplate reader; format: functional, cell-based; details: erythrocyte
[13] = test system: MRC5; assay: Cytotoxicity against human MRC5 cells assessed as reduction in cell viability incubated for 24 hrs by colorimetric tetrazolium assay; format: functional, cell-based; details: MRC5, 24 h
[14] = test system: Staphylococcus aureus; assay: Antimicrobial activity against Staphylococcus aureus ATCC 9144 assessed as reduction in bacterial growth incubated for 48 hrs by microdilution susceptibility test; format: functional
[15] = test system: Staphylococcus aureus; assay: Antimicrobial activity against extended spectrum-lactamase-carbapenemas producing Staphylococcus aureus strain IHT 99040 assessed as reduction in bacterial growth incubated for 48 hrs by microdilution method; format: functional
[16] = test system: Acinetobacter baumannii; assay: Antimicrobial activity against oxacillinase-23 producing Acinetobacter baumannii K44-35 assessed as reduction in bacterial growth incubated for 48 hrs by microdilution method; format: functional
[17] = test system: Enterococcus faecium; assay: Antimicrobial activity against extended spectrum-lactamase-carbapenemas producing Enterococcus faecium strain K36-18 assessed as reduction in bacterial growth incubated for 48 hrs by microdilution method; format: functional
[18] = test system: Pseudomonas aeruginosa; assay: Antimicrobial activity against Pseudomonas aeruginosa PAO1 assessed as reduction in bacterial growth incubated for 48 hrs by microdilution susceptibility test; format: functional
[19] = test system: Pseudomonas aeruginosa; assay: Antimicrobial activity against New Delhi metallo-beta lactamase-1 producing Pseudomonas aeruginosa 50692172 assessed as reduction in bacterial growth incubated for 48 hrs by microdilution method; format: functional
[20] = test system: HepG2; assay: Cytotoxicity against human HepG2 cells assessed as reduction in cell viability incubated for 24 hrs by colorimetric tetrazolium assay; format: functional, cell-based; details: HepG2, 24 h
[21] = Antimicrobial activity against New Delhi metallo-beta lactamase-1 Klebsiella pneumoniae K66-45 assessed as reduction in bacterial growth incubated for 48 hrs by microdilution method; format: functional
[22] = test system: Pseudomonas aeruginosa; assay: Antimicrobial activity against imipenem-type carbapenemase-14 producing Pseudomonas aeruginosa K44-24 assessed as reduction in bacterial growth incubated for 48 hrs by microdilution method; format: functional
[23] = test system: Acinetobacter baumannii; assay: Antimicrobial activity against oxacillinase-23 producing Acinetobacter baumannii K63-58 assessed as reduction in bacterial growth incubated for 48 hrs by microdilution method; format: functional
[24] = test system: Enterococcus faecium; assay: Antimicrobial activity against extended spectrum-lactamase-carbapenemas producing Enterococcus faecium strain 50901530 assessed as reduction in bacterial growth incubated for 48 hrs by microdilution method; format: functional
[25] = test system: Pseudomonas aeruginosa; assay: Antimicrobial activity against verona integron-encoded metallo-beta-lactamase-2 producing Pseudomonas aeruginosa K34-7 assessed as reduction in bacterial growth incubated for 48 hrs by microdilution method; format: functional
[26] = test system: Staphylococcus aureus; assay: Antimicrobial activity against extended spectrum-lactamase-carbapenemas producing Staphylococcus aureus N315 assessed as reduction in bacterial growth incubated for 48 hrs by microdilution method; format: functional
[27] = test system: Enterococcus faecium; assay: Antimicrobial activity against extended spectrum-lactamase-carbapenemas producing Enterococcus faecium strain 50758899 assessed as reduction in bacterial growth incubated for 48 hrs by microdilution method; format: functional
[28] = test system: Corynebacterium glutamicum; assay: Antimicrobial activity against Corynebacterium glutamicum ATCC 13032 assessed as reduction in bacterial growth incubated for 48 hrs by microdilution susceptibility test; format: functional
[29] = Antimicrobial activity against oxacillinase-245 producing Klebsiella pneumoniae 50625602 assessed as reduction in bacterial growth incubated for 48 hrs by microdilution method; format: functional
[30] = test system: Escherichia coli; assay: Antimicrobial activity against New Delhi metallo-beta lactamase-1 producing Escherichia coli 50739822 assessed as reduction in bacterial growth incubated for 48 hrs by microdilution method; format: functional
[31] = test system: Escherichia coli; assay: Antimicrobial activity against imipenem-type carbapenemase-26 producing Escherichia coli 50857972 assessed as reduction in bacterial growth incubated for 48 hrs by microdilution method; format: functional
[32] = test system: Pseudomonas aeruginosa; assay: Antimicrobial activity against verona integron-encoded metallo-beta-lactamase producing Pseudomonas aeruginosa 50692520 assessed as reduction in bacterial growth incubated for 48 hrs by microdilution method; format: functional
[33] = test system: Staphylococcus aureus; assay: Antimicrobial activity against extended spectrum-lactamase-carbapenemas producing Staphylococcus aureus NCTC 10442 assessed as reduction in bacterial growth incubated for 48 hrs by microdilution method; format: functional
[34] = Antimicrobial activity against carbapenemase producing Klebsiella pneumoniae K47-25 assessed as reduction in bacterial growth incubated for 48 hrs by microdilution method; format: functional
[35] = test system: Escherichia coli; assay: Antimicrobial activity against verona integron-encoded metallo-beta-lactamase-29-producing Escherichia coli 50639799 assessed as reduction in bacterial growth incubated for 48 hrs by microdilution method; format: functional
[36] = test system: Enterococcus faecium; assay: Antimicrobial activity against extended spectrum-lactamase-carbapenemas producing Enterococcus faecium strain TUH.50-22 assessed as reduction in bacterial growth incubated for 48 hrs by microdilution method; format: functional
[37] = Antimicrobial activity against New Delhi metallo-beta lactamase-1 and oxacillinase -181 producing Klebsiella pneumoniae 50531633 assessed as reduction in bacterial growth incubated for 48 hrs by microdilution method; format: functional

Structure (SMILES) | MIC [1] | MIC [2] | MIC [3] | MIC [4] | MIC [5] | MIC [6] | MIC [7] | MIC [8] | MIC [9] | MIC [10] | MIC [11] | EC50 [12] | IC50 [13] | MIC [14] | MIC [15] | MIC [16] | MIC [17] | MIC [18] | MIC [19] | IC50 [20] | also measured
CC(C)(C)c1cc(CC2(Cc3cc(C(C)(C)C)cc(C(C)(C)C)c3)C(=O)N(CCCCNC(=N)N)C(=O)N(CCCCNC(=N)N)C2=O)cc(C(C)(C)C)c1.O=C(O)C(F)(F)F.O=C(O)C(F)(F)F | 4 µg/mL | 8 µg/mL | 16 µg/mL | 8 µg/mL | 4 µg/mL | 4 µg/mL | 2 µg/mL | 4 µg/mL | 2 µg/mL | 16 µg/mL | 2 µg/mL | < 6 µg/mL | 17 µg/mL | 1 µg/mL | 2 µg/mL | 4 µg/mL | 2 µg/mL | 4 µg/mL | 16 µg/mL | 15 µg/mL | MIC [21]: 8 µg/mL; MIC [22]: 16 µg/mL; MIC [23]: 4 µg/mL; MIC [24]: 2 µg/mL; MIC [25]: 16 µg/mL; MIC [26]: 4 µg/mL; MIC [27]: 2 µg/mL; MIC [28]: 0.25 µg/mL; MIC [29]: 16 µg/mL; MIC [30]: 8 µg/mL; MIC [31]: 8 µg/mL; MIC [32]: 16 µg/mL; MIC [33]: 2 µg/mL; MIC [34]: 16 µg/mL; MIC [35]: 8 µg/mL; MIC [36]: 2 µg/mL; MIC [37]: 16 µg/mL
CC(C)(C)c1ccc(CC2(Cc3ccc(C(C)(C)C)cc3)C(=O)N(CCCCN)C(=O)N(CCCCN)C2=O)cc1.O=C(O)C(F)(F)F.O=C(O)C(F)(F)F | 16 µg/mL | 32 µg/mL | 8 µg/mL | > 32 µg/mL | 4 µg/mL | 16 µg/mL | 8 µg/mL | 16 µg/mL | 8 µg/mL | 4 µg/mL | 8 µg/mL | 145 µg/mL | 1 µg/mL | 4 µg/mL | 8 µg/mL | 32 µg/mL | 8 µg/mL | 8 µg/mL | > 32 µg/mL | 3 µg/mL | MIC [21]: 32 µg/mL; MIC [22]: > 32 µg/mL; MIC [23]: 16 µg/mL; MIC [24]: 4 µg/mL; MIC [25]: > 32 µg/mL; MIC [26]: 8 µg/mL; MIC [27]: 8 µg/mL; MIC [28]: 1 µg/mL; MIC [29]: 16 µg/mL; MIC [30]: 8 µg/mL; MIC [31]: 4 µg/mL; MIC [32]: > 32 µg/mL; MIC [33]: 8 µg/mL; MIC [34]: > 32 µg/mL; MIC [35]: 8 µg/mL; MIC [36]: 8 µg/mL; MIC [37]: 16 µg/mL
NCCCCN1C(=O)N(CCCCN)C(=O)C(Cc2ccc(Br)c(Cl)c2)(Cc2ccc(Br)c(Cl)c2)C1=O.O=C(O)C(F)(F)F.O=C(O)C(F)(F)F | 32 µg/mL | 32 µg/mL | 16 µg/mL | 32 µg/mL | 16 µg/mL | 32 µg/mL | 16 µg/mL | 32 µg/mL | 4 µg/mL | 16 µg/mL | 8 µg/mL | 172 µg/mL | 10 µg/mL | 4 µg/mL | 4 µg/mL | 32 µg/mL | 16 µg/mL | 32 µg/mL | 32 µg/mL | 6 µg/mL | MIC [21]: 32 µg/mL; MIC [22]: 32 µg/mL; MIC [23]: 32 µg/mL; MIC [24]: 8 µg/mL; MIC [25]: 32 µg/mL; MIC [26]: 8 µg/mL; MIC [27]: 16 µg/mL; MIC [28]: 1 µg/mL; MIC [29]: 32 µg/mL; MIC [30]: 16 µg/mL; MIC [31]: 16 µg/mL; MIC [32]: 32 µg/mL; MIC [33]: 8 µg/mL; MIC [34]: 32 µg/mL; MIC [35]: 16 µg/mL; MIC [36]: 4 µg/mL; MIC [37]: 16 µg/mL
CC(C)(C)c1cc(CC2(Cc3cc(C(C)(C)C)cc(C(C)(C)C)c3)C(=O)N(CCCCN)C(=O)N(CCCCN)C2=O)cc(C(C)(C)C)c1.O=C(O)C(F)(F)F.O=C(O)C(F)(F)F | 4 µg/mL | 8 µg/mL | 4 µg/mL | 16 µg/mL | 2 µg/mL | 4 µg/mL | 2 µg/mL | 4 µg/mL | 2 µg/mL | 8 µg/mL | 2 µg/mL | < 5 µg/mL | 1 µg/mL | 1 µg/mL | 2 µg/mL | 4 µg/mL | 2 µg/mL | 4 µg/mL | 8 µg/mL | 2 µg/mL | MIC [21]: 8 µg/mL; MIC [22]: 8 µg/mL; MIC [23]: 4 µg/mL; MIC [24]: 2 µg/mL; MIC [25]: 8 µg/mL; MIC [26]: 2 µg/mL; MIC [27]: 2 µg/mL; MIC [28]: 0.25 µg/mL; MIC [29]: 8 µg/mL; MIC [30]: 4 µg/mL; MIC [31]: 4 µg/mL; MIC [32]: 8 µg/mL; MIC [33]: 2 µg/mL; MIC [34]: 16 µg/mL; MIC [35]: 4 µg/mL; MIC [36]: 2 µg/mL; MIC [37]: 8 µg/mL
